Measurements from ChEMBL document CHEMBL5233266, “β-Carboline as a Privileged Scaffold for Multitarget Strategies in Alzheimer's Disease Therapy” (J Med Chem, 2021).

What was measured:
[1] = biological target: T1, Gamma-aminobutyric acid receptor subunit alpha-1 (Homo sapiens, UniProt P14867); assay: Binding affinity to human recombinant GABAA alpha1 receptor assessed as inhibition constant incubated for 1 hrs by liquid scintillation counting analysis
T1 sequence (P14867 whole entry): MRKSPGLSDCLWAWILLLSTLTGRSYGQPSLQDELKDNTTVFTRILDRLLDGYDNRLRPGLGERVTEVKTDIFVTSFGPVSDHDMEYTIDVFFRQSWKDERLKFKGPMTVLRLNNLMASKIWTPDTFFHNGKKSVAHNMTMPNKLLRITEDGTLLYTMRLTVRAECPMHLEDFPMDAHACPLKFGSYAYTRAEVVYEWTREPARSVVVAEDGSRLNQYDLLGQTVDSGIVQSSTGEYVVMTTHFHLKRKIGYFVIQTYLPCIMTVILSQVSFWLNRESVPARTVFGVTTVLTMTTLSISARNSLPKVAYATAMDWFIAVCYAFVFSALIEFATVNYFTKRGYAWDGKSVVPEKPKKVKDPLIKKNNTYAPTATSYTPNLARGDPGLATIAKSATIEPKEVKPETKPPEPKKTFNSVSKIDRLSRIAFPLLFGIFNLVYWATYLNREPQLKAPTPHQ

[2] = biological target: T2, Gamma-aminobutyric acid receptor subunit alpha-2 (Homo sapiens, UniProt P47869); assay: Binding affinity to human recombinant GABAA alpha2 receptor assessed as inhibition constant incubated for 1 hrs by liquid scintillation counting analysis
T2 sequence (P47869 whole entry): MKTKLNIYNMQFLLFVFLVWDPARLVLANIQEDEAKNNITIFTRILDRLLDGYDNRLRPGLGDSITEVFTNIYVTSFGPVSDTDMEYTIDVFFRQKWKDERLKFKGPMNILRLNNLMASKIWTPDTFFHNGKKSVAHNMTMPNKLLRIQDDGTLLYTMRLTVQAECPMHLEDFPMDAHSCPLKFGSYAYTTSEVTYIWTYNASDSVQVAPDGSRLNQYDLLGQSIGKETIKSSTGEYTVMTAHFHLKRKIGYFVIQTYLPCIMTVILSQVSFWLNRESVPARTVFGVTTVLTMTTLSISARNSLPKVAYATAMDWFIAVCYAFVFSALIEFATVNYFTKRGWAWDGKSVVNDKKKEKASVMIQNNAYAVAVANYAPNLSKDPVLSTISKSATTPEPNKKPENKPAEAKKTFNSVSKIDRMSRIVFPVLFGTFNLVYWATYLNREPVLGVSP

[3] = biological target: T3, Gamma-aminobutyric acid receptor subunit alpha-3 (Homo sapiens, UniProt P34903); assay: Binding affinity to human recombinant GABAA alpha3 receptor assessed as inhibition constant incubated for 1 hrs by liquid scintillation counting analysis
T3 sequence (P34903 whole entry): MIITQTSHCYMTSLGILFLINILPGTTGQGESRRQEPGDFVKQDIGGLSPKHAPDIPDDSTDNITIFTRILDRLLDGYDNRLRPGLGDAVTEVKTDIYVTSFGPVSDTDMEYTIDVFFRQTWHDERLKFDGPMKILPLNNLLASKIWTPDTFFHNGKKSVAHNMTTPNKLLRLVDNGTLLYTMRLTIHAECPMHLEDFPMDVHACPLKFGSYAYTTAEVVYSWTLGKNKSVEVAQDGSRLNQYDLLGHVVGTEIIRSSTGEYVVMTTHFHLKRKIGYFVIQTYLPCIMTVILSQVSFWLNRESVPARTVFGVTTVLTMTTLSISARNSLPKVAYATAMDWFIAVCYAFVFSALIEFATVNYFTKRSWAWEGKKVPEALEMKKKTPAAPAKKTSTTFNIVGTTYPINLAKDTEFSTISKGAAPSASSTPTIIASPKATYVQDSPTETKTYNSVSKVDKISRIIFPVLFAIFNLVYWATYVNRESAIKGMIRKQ

[4] = biological target: T4, Gamma-aminobutyric acid receptor subunit alpha-4 (Homo sapiens, UniProt P48169); assay: Binding affinity to human recombinant GABAA alpha4 receptor assessed as inhibition constant incubated for 1 hrs by liquid scintillation counting analysis
T4 sequence (P48169 whole entry): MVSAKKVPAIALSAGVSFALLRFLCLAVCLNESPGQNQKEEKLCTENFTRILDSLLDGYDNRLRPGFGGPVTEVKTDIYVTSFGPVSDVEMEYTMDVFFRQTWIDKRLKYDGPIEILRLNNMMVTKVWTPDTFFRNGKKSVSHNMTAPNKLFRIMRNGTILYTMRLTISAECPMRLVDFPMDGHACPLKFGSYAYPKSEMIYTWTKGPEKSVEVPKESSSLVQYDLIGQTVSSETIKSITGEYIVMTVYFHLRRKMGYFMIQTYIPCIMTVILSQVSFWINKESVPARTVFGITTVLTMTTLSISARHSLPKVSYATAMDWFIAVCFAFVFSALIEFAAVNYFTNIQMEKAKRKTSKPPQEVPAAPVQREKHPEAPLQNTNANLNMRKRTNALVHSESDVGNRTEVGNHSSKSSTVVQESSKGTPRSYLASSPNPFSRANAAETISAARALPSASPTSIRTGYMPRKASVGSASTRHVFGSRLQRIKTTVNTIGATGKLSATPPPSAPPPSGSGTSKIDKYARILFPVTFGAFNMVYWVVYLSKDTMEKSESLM

[5] = biological target: T5, Gamma-aminobutyric acid receptor subunit alpha-5 (Homo sapiens, UniProt P31644); assay: Binding affinity to human recombinant GABAA alpha5 receptor assessed as inhibition constant incubated for 1 hrs by liquid scintillation counting analysis
T5 sequence (P31644 whole entry): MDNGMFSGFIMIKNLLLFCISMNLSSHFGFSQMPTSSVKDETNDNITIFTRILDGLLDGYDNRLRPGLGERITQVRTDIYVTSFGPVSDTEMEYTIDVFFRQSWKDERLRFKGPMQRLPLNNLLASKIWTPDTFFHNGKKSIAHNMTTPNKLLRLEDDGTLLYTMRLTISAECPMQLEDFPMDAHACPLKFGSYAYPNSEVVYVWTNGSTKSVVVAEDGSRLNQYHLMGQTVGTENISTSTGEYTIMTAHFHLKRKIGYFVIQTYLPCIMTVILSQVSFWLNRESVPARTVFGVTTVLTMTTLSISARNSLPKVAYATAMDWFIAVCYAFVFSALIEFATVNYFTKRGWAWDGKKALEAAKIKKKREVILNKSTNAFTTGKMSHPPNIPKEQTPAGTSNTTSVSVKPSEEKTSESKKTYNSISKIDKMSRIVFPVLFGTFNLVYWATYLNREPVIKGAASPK

[6] = biological target: T6, Gamma-aminobutyric acid receptor subunit alpha-6 (Homo sapiens, UniProt Q16445); assay: Binding affinity to human recombinant GABAA alpha6 receptor assessed as inhibition constant incubated for 1 hrs by liquid scintillation counting analysis
T6 sequence (Q16445 whole entry): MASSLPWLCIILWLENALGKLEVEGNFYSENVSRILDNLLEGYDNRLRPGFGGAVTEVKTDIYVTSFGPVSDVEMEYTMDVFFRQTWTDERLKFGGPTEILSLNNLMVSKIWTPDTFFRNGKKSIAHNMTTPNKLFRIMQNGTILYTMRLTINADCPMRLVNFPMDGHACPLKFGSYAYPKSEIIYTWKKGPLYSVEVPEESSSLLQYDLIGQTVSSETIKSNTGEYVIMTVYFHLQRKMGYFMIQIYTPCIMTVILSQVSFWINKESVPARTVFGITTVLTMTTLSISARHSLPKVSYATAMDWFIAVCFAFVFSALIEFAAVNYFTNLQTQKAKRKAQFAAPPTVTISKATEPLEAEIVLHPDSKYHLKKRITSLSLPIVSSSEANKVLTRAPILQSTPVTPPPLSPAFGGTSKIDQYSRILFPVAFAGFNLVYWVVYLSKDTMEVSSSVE

[7] = biological target: T1, Gamma-aminobutyric acid receptor subunit alpha-1; assay: Inhibition of human recombinant GABAA alpha1 receptor
[8] = biological target: T2, Gamma-aminobutyric acid receptor subunit alpha-2; assay: Inhibition of human recombinant GABAA alpha2 receptor
[9] = biological target: T3, Gamma-aminobutyric acid receptor subunit alpha-3; assay: Inhibition of human recombinant GABAA alpha3 receptor
[10] = biological target: T4, Gamma-aminobutyric acid receptor subunit alpha-4; assay: Inhibition of human recombinant GABAA alpha4 receptor
[11] = biological target: T5, Gamma-aminobutyric acid receptor subunit alpha-5; assay: Inhibition of human recombinant GABAA alpha5 receptor
[12] = biological target: T6, Gamma-aminobutyric acid receptor subunit alpha-6; assay: Inhibition of human recombinant GABAA alpha6 receptor
[13] = biological target: Cyclin-dependent kinase 2 (Homo sapiens, UniProt P24941); assay: Inhibition of CDK2 (unknown origin)
[14] = biological target: Rho-associated protein kinase 1 (Homo sapiens, UniProt Q13464); assay: Inhibition of ROCK1 (unknown origin)
Chain of Rho-associated protein kinase 1 (Q13464 whole entry): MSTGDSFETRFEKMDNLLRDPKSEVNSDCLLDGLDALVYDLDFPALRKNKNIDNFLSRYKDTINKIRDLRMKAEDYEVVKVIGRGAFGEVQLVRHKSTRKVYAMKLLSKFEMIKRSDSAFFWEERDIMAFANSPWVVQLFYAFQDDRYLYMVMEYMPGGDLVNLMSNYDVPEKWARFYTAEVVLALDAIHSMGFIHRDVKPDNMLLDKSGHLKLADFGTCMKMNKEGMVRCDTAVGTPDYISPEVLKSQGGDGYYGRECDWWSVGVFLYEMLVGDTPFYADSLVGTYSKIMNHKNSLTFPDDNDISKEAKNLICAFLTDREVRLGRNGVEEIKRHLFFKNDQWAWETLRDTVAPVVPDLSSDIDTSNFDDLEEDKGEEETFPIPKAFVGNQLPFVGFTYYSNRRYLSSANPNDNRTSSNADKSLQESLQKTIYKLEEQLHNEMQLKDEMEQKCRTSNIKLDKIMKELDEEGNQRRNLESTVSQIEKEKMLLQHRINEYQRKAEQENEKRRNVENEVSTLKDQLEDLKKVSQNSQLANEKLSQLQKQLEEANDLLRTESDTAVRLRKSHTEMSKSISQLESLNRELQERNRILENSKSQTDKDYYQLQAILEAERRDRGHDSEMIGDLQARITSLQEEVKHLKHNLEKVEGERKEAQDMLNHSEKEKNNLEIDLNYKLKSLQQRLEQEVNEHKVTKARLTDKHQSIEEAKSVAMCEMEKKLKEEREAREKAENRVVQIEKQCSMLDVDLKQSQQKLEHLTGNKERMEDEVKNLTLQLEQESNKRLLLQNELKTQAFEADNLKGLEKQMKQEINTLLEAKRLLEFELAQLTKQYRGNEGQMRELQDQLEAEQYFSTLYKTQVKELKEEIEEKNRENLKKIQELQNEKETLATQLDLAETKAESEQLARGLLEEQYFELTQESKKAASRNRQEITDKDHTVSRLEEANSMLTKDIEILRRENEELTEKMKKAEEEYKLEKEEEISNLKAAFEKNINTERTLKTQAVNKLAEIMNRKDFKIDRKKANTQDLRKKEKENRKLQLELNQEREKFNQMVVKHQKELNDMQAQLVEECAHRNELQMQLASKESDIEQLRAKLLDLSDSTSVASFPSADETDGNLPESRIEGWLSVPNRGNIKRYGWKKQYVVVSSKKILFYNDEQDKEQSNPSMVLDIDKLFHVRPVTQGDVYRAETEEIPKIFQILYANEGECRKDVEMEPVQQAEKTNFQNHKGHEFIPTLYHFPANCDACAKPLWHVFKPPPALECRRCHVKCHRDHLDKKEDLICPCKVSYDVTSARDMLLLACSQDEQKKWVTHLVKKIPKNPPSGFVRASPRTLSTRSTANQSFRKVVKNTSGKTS

[15] = biological target: Rho-associated protein kinase 2 (Homo sapiens, UniProt O75116); assay: Inhibition of ROCK2 (unknown origin)
[16] = biological target: Dual specificity protein kinase CLK2 (Homo sapiens, UniProt P49760); assay: Inhibition of CLK2 (unknown origin)
[17] = biological target: Dual specificity protein kinase CLK3 (Homo sapiens, UniProt P49761); assay: Inhibition of CLK3 (unknown origin)
Chain of Dual specificity protein kinase CLK3 (P49761 whole entry): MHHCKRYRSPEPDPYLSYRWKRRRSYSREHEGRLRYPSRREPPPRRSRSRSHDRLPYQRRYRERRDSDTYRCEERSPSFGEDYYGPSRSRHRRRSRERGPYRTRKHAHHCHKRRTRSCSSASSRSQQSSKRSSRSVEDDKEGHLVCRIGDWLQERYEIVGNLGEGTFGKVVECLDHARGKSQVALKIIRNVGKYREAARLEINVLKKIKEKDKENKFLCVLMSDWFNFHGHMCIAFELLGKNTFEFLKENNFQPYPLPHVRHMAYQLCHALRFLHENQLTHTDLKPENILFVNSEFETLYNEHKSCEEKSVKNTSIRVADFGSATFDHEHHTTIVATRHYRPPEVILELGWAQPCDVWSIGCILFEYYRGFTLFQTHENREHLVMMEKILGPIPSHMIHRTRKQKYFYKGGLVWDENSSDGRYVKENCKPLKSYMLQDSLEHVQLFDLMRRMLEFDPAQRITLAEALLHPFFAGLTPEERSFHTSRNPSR

[18] = biological target: Dual specificity protein kinase CLK4 (Homo sapiens, UniProt Q9HAZ1); assay: Inhibition of CLK4 (unknown origin)
Chain of Dual specificity protein kinase CLK4 (Q9HAZ1 whole entry): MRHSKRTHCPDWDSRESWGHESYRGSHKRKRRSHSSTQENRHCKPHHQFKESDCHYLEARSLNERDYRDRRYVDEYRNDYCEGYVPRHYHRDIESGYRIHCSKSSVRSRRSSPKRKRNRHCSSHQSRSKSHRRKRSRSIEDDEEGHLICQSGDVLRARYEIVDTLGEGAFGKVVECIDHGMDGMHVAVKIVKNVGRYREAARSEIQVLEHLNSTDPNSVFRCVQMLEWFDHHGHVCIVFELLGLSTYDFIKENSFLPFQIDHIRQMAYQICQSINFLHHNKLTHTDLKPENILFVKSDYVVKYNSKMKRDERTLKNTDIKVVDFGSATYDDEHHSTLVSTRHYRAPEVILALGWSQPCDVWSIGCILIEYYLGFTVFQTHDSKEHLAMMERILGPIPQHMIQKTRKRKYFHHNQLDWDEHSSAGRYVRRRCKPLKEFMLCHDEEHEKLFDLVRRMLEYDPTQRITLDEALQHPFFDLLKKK

[19] = biological target: Mitogen-activated protein kinase 1 (Homo sapiens, UniProt P28482); assay: Inhibition of ERK2 (unknown origin)
[20] = biological target: Tyrosine-protein kinase Fyn (Homo sapiens, UniProt P06241); assay: Inhibition of FYN (unknown origin)
[21] = biological target: Tyrosine-protein kinase Lck (Homo sapiens, UniProt P06239); assay: Inhibition of LCK (unknown origin)
[22] = biological target: Tyrosine-protein kinase Lyn (Homo sapiens, UniProt P07948); assay: Inhibition of LYN (unknown origin)
Chain of Tyrosine-protein kinase Lyn (P07948 whole entry): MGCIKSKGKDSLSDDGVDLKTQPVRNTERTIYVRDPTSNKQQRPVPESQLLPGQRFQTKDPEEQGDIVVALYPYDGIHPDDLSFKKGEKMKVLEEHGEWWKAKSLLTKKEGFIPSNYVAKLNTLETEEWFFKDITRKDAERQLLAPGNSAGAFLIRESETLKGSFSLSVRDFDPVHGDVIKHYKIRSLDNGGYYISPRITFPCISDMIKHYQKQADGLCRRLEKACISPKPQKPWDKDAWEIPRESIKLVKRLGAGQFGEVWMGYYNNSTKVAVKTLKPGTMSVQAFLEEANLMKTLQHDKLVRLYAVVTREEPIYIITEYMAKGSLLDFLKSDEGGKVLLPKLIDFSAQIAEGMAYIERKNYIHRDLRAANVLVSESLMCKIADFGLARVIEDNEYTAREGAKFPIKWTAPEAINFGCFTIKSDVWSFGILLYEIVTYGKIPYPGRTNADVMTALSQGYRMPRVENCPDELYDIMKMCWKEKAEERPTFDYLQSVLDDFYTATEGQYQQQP

[23] = biological target: cAMP-dependent protein kinase (PKA) (Homo sapiens, UniProt P22694+P17612+P22612); assay: Inhibition of PKA (unknown origin); type: protein assay
Protein kinase C (PKC) = assay: Inhibition of PKC (unknown origin); type: protein assay, Homo sapiens
[24] = biological target: GABA-A receptor; anion channel; assay: Displacement of [3H]flunitrazepam from GABAA (unknown origin ) receptor by radioligand binding assay; type: protein-complex assay, Homo sapiens
[25] = biological target: Gamma-aminobutyric acid receptor subunit alpha-1 (Rattus norvegicus, UniProt P62813); assay: Displacement of [3H]-flumazenil from rat recombinant alpha1 GABAA receptor assessed as inhibition constant in presence of zolpidem
Chain of Gamma-aminobutyric acid receptor subunit alpha-1 (Rattus norvegicus, UniProt P62813) (P62813 whole entry): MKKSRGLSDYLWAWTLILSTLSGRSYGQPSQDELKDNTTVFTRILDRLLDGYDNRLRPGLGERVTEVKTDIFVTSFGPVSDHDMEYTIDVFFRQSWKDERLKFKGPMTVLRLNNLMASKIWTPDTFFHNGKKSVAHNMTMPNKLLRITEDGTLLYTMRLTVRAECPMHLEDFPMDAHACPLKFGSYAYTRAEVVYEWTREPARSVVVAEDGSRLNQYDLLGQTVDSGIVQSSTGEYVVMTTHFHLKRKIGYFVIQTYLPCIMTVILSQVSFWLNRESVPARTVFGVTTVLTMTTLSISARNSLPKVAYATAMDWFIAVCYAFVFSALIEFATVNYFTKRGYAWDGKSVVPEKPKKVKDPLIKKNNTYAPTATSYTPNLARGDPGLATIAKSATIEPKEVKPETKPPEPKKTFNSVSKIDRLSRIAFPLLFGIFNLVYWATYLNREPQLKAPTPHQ

[26] = biological target: Gamma-aminobutyric acid receptor subunit alpha-2 (Rattus norvegicus, UniProt P23576); assay: Displacement of [3H]-flumazenil from rat recombinant alpha2 GABAA receptor assessed as inhibition constant in presence of zolpidem
Chain of Gamma-aminobutyric acid receptor subunit alpha-2 (Rattus norvegicus, UniProt P23576) (P23576 whole entry): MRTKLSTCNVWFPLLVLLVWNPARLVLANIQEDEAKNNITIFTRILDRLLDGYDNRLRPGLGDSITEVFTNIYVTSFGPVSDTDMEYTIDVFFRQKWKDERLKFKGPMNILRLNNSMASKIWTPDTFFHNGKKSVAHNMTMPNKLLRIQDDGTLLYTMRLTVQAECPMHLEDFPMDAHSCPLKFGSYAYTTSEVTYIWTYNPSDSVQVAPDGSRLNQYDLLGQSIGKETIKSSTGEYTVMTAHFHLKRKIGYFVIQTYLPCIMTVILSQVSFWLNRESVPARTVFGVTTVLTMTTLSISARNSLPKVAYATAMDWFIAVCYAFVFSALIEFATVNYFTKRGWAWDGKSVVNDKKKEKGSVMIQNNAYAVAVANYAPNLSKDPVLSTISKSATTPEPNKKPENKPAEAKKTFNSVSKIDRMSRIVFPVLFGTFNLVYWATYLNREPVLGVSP

[27] = biological target: Cyclin-dependent kinase 5 (Homo sapiens, UniProt Q00535); assay: Inhibition of CDK5 (unknown origin)

For `CC(OC(=O)c1cc2c(cn1)[nH]c1ccccc12)c1ccccc1` (stereo not drawn), which Ki [1] is on record?
The Ki was 34 nM.

And the Ki [2]?
The Ki was 1000 nM.

And the Ki [3]?
Its Ki is 1000 nM.

And the Ki [4]?
Its Ki is 1000 nM.

And the Ki [5]?
The Ki was 1000 nM.

And the Ki [6]?
Its Ki is 3000 nM.

And the IC50 [7]?
The IC50 was 34 nM.

What about the IC50 [8] of the same molecule?
The IC50 was over 1000 nM.

And the IC50 [9]?
Its IC50 is over 1000 nM.

And the IC50 [10]?
The IC50 was over 1000 nM.

What about the IC50 [11] of the same molecule?
Its IC50 is over 1000 nM.

And the IC50 [12]?
The IC50 was over 1000 nM.

How did the IC50 [13] turn out when `COc1ccc2c(c1)[nH]c1c(C)nccc12` [HARMINE] was run?
Its IC50 is 33000 nM.

What about the IC50 [14] of the same molecule?
The IC50 was 1500 nM.

And the IC50 [15]?
Its IC50 is over 40000 nM.

And the IC50 [16]?
The IC50 was 120 nM.

And the IC50 [17]?
The IC50 was 3000 nM.

What about the IC50 [18] of the same molecule?
The IC50 was 24 nM.

And the IC50 [19]?
Its IC50 is over 30000 nM.

And the IC50 [20]?
Its IC50 is over 250000 nM.

What about the IC50 [21] of the same molecule?
The IC50 was over 250000 nM.

And the IC50 [22]?
Its IC50 is over 250000 nM.

And the IC50 [23]?
Its IC50 is over 250000 nM.

And the IC50 (Protein kinase C (PKC))?
Its IC50 is over 250000 nM.

And the IC50 [24]?
Its IC50 is over 100000 nM.

Which results are given for `Cn1c2ccc(F)cc2c2c(C(=O)N3CCCC3)cn(-c3ccccc3)c(=O)c21`?
Ki [25]: 7 nM; Ki [26]: 12 nM

Which IC50 [27] does the source give for `Cc1[nH]cnc1-c1nccc2c1[nH]c1ccccc12` here?
The IC50 was 5000 nM.
